Measurements reported in patent US6664231B1, “Anti-fungal peptides” (priority 1993, dated 2003).

Tested on: C. albicans (CA-1, Strain SLU-1)
Test: Radial diffusion assay
Format: cell-based, Candida albicans
Settings: for C. albicans pmol/30 mm^2 zone: pmoles of peptide added to well to achieve a 30 mm^2 zone, PROBIT analysis, crude or purified (P′) peptide; for Plate Assay (nmol), crude peptide activity / Plate Assay (nmol), pure peptide activity: nanomoles required to achieve a net 30 mm^2 zone (log titration curve); for Plate Assay (nmol), pure peptide activity: HPLC-purified peptide
Method in brief: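 Yeast at 1×10^6 CFU/mL in agarose underlayer (3% Sabouraud, 10 mM sodium phosphate pH 7.4); 2-fold peptide dilutions in D-PBS from ~1 mg/mL loaded into wells, 3 h at 37° C, then nutrient overlayer overnight. Value: pmol/well giving 30 mm^2 net clear zone, by PROBIT regression.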

Row | Substance | C. albicans pmol/30 mm^2 zone | other results
1 | H-KSKVGWLIQLFAKK-NH2 [XMP.42] | 548 pmol/30 mm^2 zone | –
2 | H-KSKVGWLIQLFFKK-NH2 [XMP.94] | >923 pmol/30 mm^2 zone | –
3 | H-KSKVGWLIQLFHAK-NH2 [XMP.43] | 785 pmol/30 mm^2 zone | –
4 | H-KSKVGWLIQLFHKA-NH2 [XMP.44] | 578 pmol/30 mm^2 zone | –
5 | H-KSKVGWLIQLFHKF-NH2 [XMP.96] | 1856 pmol/30 mm^2 zone | –
6 | H-KSKVGWLIQLFHKKKSKVGWLIFLFHKK-NH2 [XMP.274] | >2,457 pmol/30 mm^2 zone | –
7 | H-KSKVGWLIQLFHKKKSKVGWLILLFHKK-NH2 [XMP.271] | >1,995 pmol/30 mm^2 zone | –
8 | H-KSKVGWLIQLFHKKKSKVGWLIQLFHKK-NH2 [XMP.29] | >1469 pmol/30 mm^2 zone | –
9 | H-KSKVGWLIQLFHKW-NH2 [XMP.108] | >3219 pmol/30 mm^2 zone | –
10 | H-KSKVGWLIQLFLKK-NH2 [XMP.87] | >1536 pmol/30 mm^2 zone | –
11 | H-KSKVGWLIQLFWKK-NH2 [XMP.107] | >2796 pmol/30 mm^2 zone | –
12 | H-KSKVGWLIQLWHKK-NH2 [XMP.82] | 518 pmol/30 mm^2 zone | –
13 | H-KSKVGWLIRLFHKK-NH2 [XMP.265] | 2,996 pmol/30 mm^2 zone | –
14 | H-KSKVGWLISLFHKK-NH2 [XMP.104] | >5569 pmol/30 mm^2 zone | –
15 | H-KSKVGWLITLFHKK-NH2 [XMP.106] | 1032 pmol/30 mm^2 zone | –
16 | H-KSKVGWLIYLFHKK-NH2 [XMP.125] | >3150 pmol/30 mm^2 zone | –
17 | H-KSKVKALIQLFHKK-NH2 [XMP.161] | >2999 pmol/30 mm^2 zone | –
18 | H-KSKVKFLIKLFHKK-NH2 [XMP.283] | 1,336 pmol/30 mm^2 zone | –
19 | H-KSKVKVAIQLFHKK-NH2 [XMP.269] | 635 pmol/30 mm^2 zone | –
20 | H-KSKVKVLIQLFHKK-NH2 [XMP.266] | 984 pmol/30 mm^2 zone | –
21 | H-KSKVKWAIQLFHKK-NH2 [XMP.267] | 256 pmol/30 mm^2 zone | C. albicans pmol/30 mm^2 zone (listed as XMP.267P′): 106 pmol/30 mm^2 zone
22 | H-KSKVKWLIKLFFKFKSKVKWLIKLFFKF-NH2 [XMP.101] | >1040 pmol/30 mm^2 zone | –
23 | H-KSKVKWLIKLFHKK-NH2 [XMP.100] | 462 pmol/30 mm^2 zone | –
24 | H-KSKVKWLIQLWHKK-NH2 [XMP.124] | 351 pmol/30 mm^2 zone | –
25 | H-KSKVLWLIQLFHKK-NH2 [XMP.85] | >1881 pmol/30 mm^2 zone | –

Row | Substance | C. albicans pmol/30 mm^2 zone | other results
26 | H-KSKVWLIQLFHKK-NH2 [XMP.11] | 645 pmol/30 mm^2 zone | –
27 | H-KVKWLI-NH2 [XMP.313] | >11,050 pmol/30 mm^2 zone | –
28 | H-KVKWLI-NH2 [compound 313] | – | Plate Assay (nmol), crude peptide activity: >11.05 nmol
29 | H-KVKWLIQ-NH2 [Peptide 306] | – | Plate Assay (nmol), crude peptide activity: >10.485 nmol
30 | H-KVKWLIQ-NH2 [XMP.306] | >10,485 pmol/30 mm^2 zone | –
31 | H-KVKWLIQL-NH2 [Peptide 300] | – | Plate Assay (nmol), pure peptide activity: 0.993 nmol; Plate Assay (nmol), crude peptide activity: 1.957 nmol
32 | H-KVKWLIQL-NH2 [XMP.300] | 1,957 pmol/30 mm^2 zone | C. albicans pmol/30 mm^2 zone (listed as XMP.300P′): 993 pmol/30 mm^2 zone
33 | H-KVKWLIQLF-NH2 [Peptide 295] | – | Plate Assay (nmol), pure peptide activity: >2.612 nmol; Plate Assay (nmol), crude peptide activity: >1.977 nmol
34 | H-KVKWLIQLF-NH2 [XMP.295] | >1,977 pmol/30 mm^2 zone | C. albicans pmol/30 mm^2 zone (listed as XMP.295P′): >2,612 pmol/30 mm^2 zone
35 | H-KVKWLIQLFH-NH2 [Peptide 291] | – | Plate Assay (nmol), crude peptide activity: >5.039 nmol
36 | H-KVKWLIQLFH-NH2 [XMP.291] | >5,039 pmol/30 mm^2 zone | –
37 | H-KVKWLIQLFHK-NH2 [Peptide 288] | – | Plate Assay (nmol), pure peptide activity: 0.279 nmol; Plate Assay (nmol), crude peptide activity: 3.639 nmol
38 | H-KVKWLIQLFHK-NH2 [XMP.288] | >3,062 pmol/30 mm^2 zone | C. albicans pmol/30 mm^2 zone (listed as XMP.288P′): 279 pmol/30 mm^2 zone
39 | H-KWLIQL-NH2 [XMP.315] | >5,069 pmol/30 mm^2 zone | C. albicans pmol/30 mm^2 zone (listed as XMP.315P′): >12,853 pmol/30 mm^2 zone
40 | H-KWLIQL-NH2 [compound 315] | – | Plate Assay (nmol), pure peptide activity: >12.853 nmol; Plate Assay (nmol), crude peptide activity: >5.069 nmol
41 | H-KWLIQLF-NH2 [XMP.308] | b (No detectable activity up to 5 μg/well) | –
42 | H-KWLIQLFH-NH2 [Peptide 302] | – | Plate Assay (nmol), pure peptide activity: 2.07 nmol; Plate Assay (nmol), crude peptide activity: >5.497 nmol
43 | H-KWLIQLFH-NH2 [XMP.302] | >5,497 pmol/30 mm^2 zone | C. albicans pmol/30 mm^2 zone (listed as XMP.302P′): 2,070 pmol/30 mm^2 zone
44 | H-LIQLFH-NH2 [XMP.317] | b (No detectable activity up to 5 μg/well) | –
45 | H-LIQLFHK-NH2 [Peptide 310] | – | Plate Assay (nmol), crude peptide activity: >9.475 nmol
46 | H-LIQLFHK-NH2 [XMP.310] | >9,475 pmol/30 mm^2 zone | –
47 | H-LIQLFHKK-NH2 [Peptide 304] | – | Plate Assay (nmol), crude peptide activity: >8.290 nmol
48 | H-LIQLFHKK-NH2 [XMP.304] | >8,290 pmol/30 mm^2 zone | –
49 | H-QLFHKK-NH2 [XMP.319] | b (No detectable activity up to 5 μg/well) | –
50 | H-RRWLIQLRR-NH2 [XMP.336] | >7,332 pmol/30 mm^2 zone | C. albicans pmol/30 mm^2 zone (listed as XMP.336P′): h (inactive to 5,268 pmol)

Row | Substance | C. albicans pmol/30 mm^2 zone | other results
51 | H-SKVKWL-NH2 [Peptide 312] | – | Plate Assay (nmol), crude peptide activity: >11.20 nmol
52 | H-SKVKWL-NH2 [XMP.312] | >11,120 pmol/30 mm^2 zone | –
53 | H-SKVKWLI-NH2 [Peptide 305] | – | Plate Assay (nmol), crude peptide activity: >10.228 nmol
54 | H-SKVKWLI-NH2 [XMP.305] | >10,228 pmol/30 mm^2 zone | –
55 | H-SKVKWLIQ-NH2 [Peptide 299] | – | Plate Assay (nmol), crude peptide activity: >8.768 nmol
56 | H-SKVKWLIQ-NH2 [XMP.299] | >8,768 pmol/30 mm^2 zone | –
57 | H-SKVKWLIQL-NH2 [Peptide 294] | – | Plate Assay (nmol), crude peptide activity: >4.634 nmol
58 | H-SKVKWLIQL-NH2 [XMP.294] | >4,634 pmol/30 mm^2 zone | –
59 | H-SKVKWLIQLF-NH2 [Peptide 290] | – | Plate Assay (nmol), crude peptide activity: >2.233 nmol
60 | H-SKVKWLIQLF-NH2 [XMP.290] | >2,233 pmol/30 mm^2 zone | –
61 | H-SKVKWLIQLFH-NH2 [Peptide 287] | – | Plate Assay (nmol), crude peptide activity: >3.509 nmol
62 | H-SKVKWLIQLFH-NH2 [XMP.287] | >3,509 pmol/30 mm^2 zone | –
63 | H-SKVKWLIQLFHK-NH2 [Peptide 285] | – | Plate Assay (nmol), crude peptide activity: >3.024 nmol
64 | H-SKVKWLIQLFHK-NH2 [XMP.285] | >3,024 pmol/30 mm^2 zone | –
65 | H-SKVKWLIQLFHKK-NH2 [Peptide 284] | – | Plate Assay (nmol), pure peptide activity: 0.373 nmol; Plate Assay (nmol), crude peptide activity: 1.460 nmol
66 | H-SVHVHISKSKVGWLIQLFHKKIESALRNK-NH2 [XMP.12] | >2099 pmol/30 mm^2 zone | –
67 | H-VKWLIQ-NH2 [XMP.314] | >13,497 pmol/30 mm^2 zone | –
68 | H-VKWLIQ-NH2 [compound 314] | – | Plate Assay (nmol), crude peptide activity: 13.497 nmol
69 | H-VKWLIQL-NH2 [Peptide 307] | – | Plate Assay (nmol), crude peptide activity: >8.345 nmol
70 | H-VKWLIQL-NH2 [XMP.307] | >8,345 pmol/30 mm^2 zone | –
71 | H-VKWLIQLF-NH2 [XMP.301] | b (No detectable activity up to 5 μg/well) | –
72 | H-VKWLIQLFH-NH2 [Peptide 296] | – | Plate Assay (nmol), crude peptide activity: >5.573 nmol
73 | H-VKWLIQLFH-NH2 [XMP.296] | >5,573 pmol/30 mm^2 zone | –
74 | H-VKWLIQLFHK-NH2 [Peptide 292] | – | Plate Assay (nmol), crude peptide activity: >4.063 nmol
75 | H-VKWLIQLFHK-NH2 [XMP.292] | >4,463 pmol/30 mm^2 zone | –
